Several values for one entry are separate records, joined by “and”; a condition that tells them apart may be missing. Equal values may be shown once. Toxic doses and inconclusive results are not listed. How the source made its calls: active means survival T/C of 150% or more; inactive means T/C below 125% in these data.
Tested on: BDF1 mice, P388 leukemia ip, median survival T/C
Assay: NCI In Vivo Anticancer Drug Screen. Data for tumor model P388 Leukemia (intraperitoneal) in B6D2F1 (BDF1) mice
Details: endpoint: median survival time, higher = longer survival
In short: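 T/C = treated-group survival ÷ vehicle-control survival; tumour transplanted into mice before dosing.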

[1] = dose: 50.0 mg/kg/injection, schedule: Q01DX009 (ip), vehicle: Klucel (hydroxypropylcellulose) (HPC)
[2] = dose: 100.0 mg/kg/injection, schedule: Q01DX009 (ip), vehicle: Klucel (hydroxypropylcellulose) (HPC)
[3] = dose: 100.0 mg/kg/injection, schedule: Q04DX003 (ip), vehicle: saline with Tween-80
[4] = dose: 200.0 mg/kg/injection, schedule: Q04DX003 (ip), vehicle: saline with Tween-80
[5] = dose: 400.0 mg/kg/injection, schedule: Q04DX003 (ip), vehicle: saline with Tween-80
[6] = dose: 50.0 mg/kg/injection, schedule: Q01DX009 (ip), vehicle: saline with Tween-80
[7] = dose: 100.0 mg/kg/injection, schedule: Q01DX009 (ip), vehicle: saline with Tween-80
[8] = dose: 200.0 mg/kg/injection, schedule: Q01DX009 (ip), vehicle: saline with Tween-80
[9] = dose: 12.5 mg/kg/injection, schedule: Q01DX009 (ip), vehicle: saline
[10] = dose: 25.0 mg/kg/injection, schedule: Q01DX009 (ip), vehicle: saline
[11] = dose: 50.0 mg/kg/injection, schedule: Q01DX009 (ip), vehicle: saline
[12] = dose: 100.0 mg/kg/injection, schedule: Q01DX009 (ip), vehicle: saline
[13] = dose: 200.0 mg/kg/injection, schedule: Q01DX009 (ip), vehicle: saline

Measured: T/C

C=CC12COC(=O)C(=C)C1C1OC(=O)C(=C)C1C(O)C2 (stereo unspecified)
inactive: dose: 1.0 mg/kg/injection, schedule: Q01DX009 (ip), vehicle: water 118 % of control | dose: 2.0 mg/kg/injection, schedule: Q01DX009 (ip), vehicle: water 109 % of control | dose: 4.6 mg/kg/injection, schedule: Q01DX010 (ip), vehicle: carboxymethylcellulose (CMC) 115 % of control | dose: 8.0 mg/kg/injection, schedule: Q01DX009 (ip), vehicle: water 113 % of control | dose: 10.0 mg/kg/injection, schedule: Q01DX009 (ip), vehicle: saline + alcohol 122 % of control | dose: 125.0 micrograms/kg/injection, schedule: Q01DX010 (ip), vehicle: carboxymethylcellulose (CMC) 95 % of control | dose: 250.0 micrograms/kg/injection, schedule: Q01DX010 (ip), vehicle: carboxymethylcellulose (CMC) 95 % of control | dose: 500.0 micrograms/kg/injection, schedule: Q01DX010 (ip), vehicle: carboxymethylcellulose (CMC) 100 % of control | dose: 1000.0 micrograms/kg/injection, schedule: Q01DX010 (ip), vehicle: carboxymethylcellulose (CMC) 104 % of control | dose: 2000.0 micrograms/kg/injection, schedule: Q01DX010 (ip), vehicle: carboxymethylcellulose (CMC) 104 % of control | dose: 4000.0 micrograms/kg/injection, schedule: Q01DX010 (ip), vehicle: carboxymethylcellulose (CMC) 100 % of control

C=CCSc1nc2ccccc2c(=O)n1-c1cc(OC)c(Cl)cc1OC
inactive: [1] 88 % of control | [2] 96 % of control

Cn1nnnc1[N-]Cc1ccccc1.[Au+].c1ccc([PH+](c2ccccc2)c2ccccc2)cc1
inactive: dose: 12.5 mg/kg/injection, schedule: Q01DX001 (ip), vehicle: saline with Tween-80 111 % of control | dose: 25.0 mg/kg/injection, schedule: Q01DX001 (ip), vehicle: saline with Tween-80 111 % of control | dose: 50.0 mg/kg/injection, schedule: Q01DX001 (ip), vehicle: saline with Tween-80 123 % of control

COC(=O)CNC(=O)C(Cc1ccc(OCc2ccccc2)cc1)NC(=O)OC(C)(C)C (stereo unspecified)
inactive: [3] 105 % of control | [4] 120 % of control | [5] 120 % of control

Nc1cc(N)cc(Cc2ccccc2)c1
inactive: [1] 112 % of control | [2] 116 % of control | dose: 200.0 mg/kg/injection, schedule: Q01DX009 (ip), vehicle: Klucel (hydroxypropylcellulose) (HPC) 116 % of control

C[C@]12CC[C@H]3[C@@H](CC[C@]4(O)C[C@@H](O)CC[C@]34C=O)[C@@]1(O)CC[C@@H]2c1ccc(=O)oc1
inactive: dose: 13.7 mg/kg/injection, schedule: Q01DX010 (ip), vehicle: carboxymethylcellulose (CMC) 95 % of control | dose: 27.5 mg/kg/injection, schedule: Q01DX010 (ip), vehicle: carboxymethylcellulose (CMC) 100 % of control

CCOC(=O)c1cccc2cccc(C(=O)OCC)c12
inactive: dose: 25.0 mg/kg/injection, schedule: Q01DX009 (ip), vehicle: saline with Tween-80 106 % of control | [6] 92 % of control | [7] 114 % of control | [8] 100 % of control

N=C(N)c1ccc(C(=N)N)cc1
inactive: dose: 25.0 mg/kg/injection, schedule: Q01DX009 (ip), vehicle: water 100 % of control | dose: 50.0 mg/kg/injection, schedule: Q01DX009 (ip), vehicle: water 94 % of control | dose: 50.0 mg/kg/injection, schedule: Q04DX003 (ip), vehicle: water 95 % of control | dose: 100.0 mg/kg/injection, schedule: Q01DX009 (ip), vehicle: water 100 % of control | dose: 100.0 mg/kg/injection, schedule: Q04DX003 (ip), vehicle: water 100 % of control | dose: 200.0 mg/kg/injection, schedule: Q04DX003 (ip), vehicle: water 100 % of control

Cc1nc(CN(C)C)c2cnccn12
inactive: dose: 6.25 mg/kg/injection, schedule: Q01DX009 (ip), vehicle: saline 95 % of control | [9] 104 % of control | [10] 100 % of control

CCOC(=O)CC(=O)N/N=C(/C)C(=O)OCC
inactive: [7] 108 % of control | [3] 88 % of control | [8] 99 % of control | [4] 97 % of control | [5] 111 % of control

c1ccc2c(c1)-c1cccc3cccc-2c13
inactive: [6] 98 % of control | [7] 102 % of control | [8] 100 % of control

CC(=O)[O][Hg][CH]1CCC2OC1CC[CH]2[Hg][O]C(C)=O (stereo unspecified)
inactive: dose: 1.56 mg/kg/injection, schedule: Q01DX009 (ip), vehicle: saline with Tween-80 101 % of control | dose: 3.13 mg/kg/injection, schedule: Q01DX009 (ip), vehicle: saline with Tween-80 113 % of control | dose: 6.25 mg/kg/injection, schedule: Q01DX009 (ip), vehicle: saline with Tween-80 111 % of control | dose: 12.5 mg/kg/injection, schedule: Q01DX009 (ip), vehicle: saline with Tween-80 104 % of control

O=C(O)c1ccc(N2C(=O)C=CC2=O)cc1 (tested in a mixture with another compound)
inactive: dose: 0.39 mg/kg/injection, schedule: Q01DX009 (ip), vehicle: Klucel (hydroxypropylcellulose) (HPC) 95 % of control | dose: 0.78 mg/kg/injection, schedule: Q01DX009 (ip), vehicle: Klucel (hydroxypropylcellulose) (HPC) 108 % of control | dose: 1.25 mg/kg/injection, schedule: Q01DX001 (ip), vehicle: Klucel (hydroxypropylcellulose) (HPC) 100 % of control | dose: 1.56 mg/kg/injection, schedule: Q01DX009 (ip), vehicle: Klucel (hydroxypropylcellulose) (HPC) 95 % of control | dose: 2.5 mg/kg/injection, schedule: Q01DX001 (ip), vehicle: Klucel (hydroxypropylcellulose) (HPC) 104 % of control | dose: 3.12 mg/kg/injection, schedule: Q01DX009 (ip), vehicle: Klucel (hydroxypropylcellulose) (HPC) 110 % of control | dose: 4.6 mg/kg/injection, schedule: Q04DX003 (ip), vehicle: Klucel (hydroxypropylcellulose) (HPC) 95 % of control | dose: 5.0 mg/kg/injection, schedule: Q01DX001 (ip), vehicle: Klucel (hydroxypropylcellulose) (HPC) 104 % of control | dose: 7.0 mg/kg/injection, schedule: Q04DX003 (ip), vehicle: Klucel (hydroxypropylcellulose) (HPC) 95 % of control | dose: 10.0 mg/kg/injection, schedule: Q04DX003 (ip), vehicle: Klucel (hydroxypropylcellulose) (HPC) 100 % of control

CCN(CC)c1cccc(N)c1
inactive: dose: 50.0 mg/kg/injection, schedule: Q01DX009 (sc), vehicle: olive oil, sesame oil, peanut oil 104 % of control | dose: 50.0 mg/kg/injection, schedule: Q04DX003 (sc), vehicle: olive oil, sesame oil, peanut oil 100 % of control | dose: 100.0 mg/kg/injection, schedule: Q01DX009 (sc), vehicle: olive oil, sesame oil, peanut oil 87 % of control | dose: 100.0 mg/kg/injection, schedule: Q04DX003 (sc), vehicle: olive oil, sesame oil, peanut oil 104 % of control | dose: 200.0 mg/kg/injection, schedule: Q04DX003 (sc), vehicle: olive oil, sesame oil, peanut oil 100 % of control

CCN(CC)CCCNc1c(OC)cc(C)c2sc3ccccc3c(=O)c12
inactive: [9] 93 % of control | [10] 108 % of control | [11] 112 % of control

CC1(C)CCC2(CC1)CC(=O)OC2=O
inactive: [3] 95 % of control | [4] 87 % of control | [5] 104 % of control

O=C(O)C(Cl)Cc1cnc[nH]1 (stereo unspecified)
inactive: [11] 97 % of control and 91 % of control | [12] 107 % of control and 87 % of control | [13] 103 % of control and 95 % of control

CCC(C)(CCC(=O)O)c1ccccc1 (stereo unspecified)
inactive: dose: 100.0 mg/kg/injection, schedule: Q04DX002 (ip), vehicle: saline with Tween-80 97 % of control | dose: 200.0 mg/kg/injection, schedule: Q04DX002 (ip), vehicle: saline with Tween-80 103 % of control | dose: 400.0 mg/kg/injection, schedule: Q04DX002 (ip), vehicle: saline with Tween-80 106 % of control

C[C@]12CCCC[C@@H]1CC[C@@H]1[C@@H]2[C@@H](O)C[C@@]2(C)[C@H]1CC[C@]2(C)O
inactive: [6] 104 % of control | [7] 95 % of control | [8] 100 % of control

c1ccc(CN2C3Oc4ccccc4C2Oc2ccccc23)cc1
inactive: [6] 94 % of control | [8] 87 % of control

O=S(=O)(Oc1ccccc1)C(F)(F)C(F)(F)C(F)(F)C(F)(F)F
inactive: [11] 109 % of control | [12] 106 % of control | [13] 109 % of control

CO[C@@H]1C=C[C@@]23c4cc5c(cc4CN(C[C@@H]2O)[C@H]3C1)OCO5
inactive: dose: 18.75 mg/kg/injection, schedule: Q01DX010 (ip), vehicle: saline 104 % of control | dose: 37.5 mg/kg/injection, schedule: Q01DX010 (ip), vehicle: saline 104 % of control
